Results taken from ChEMBL document CHEMBL1201862, “PubChem BioAssay data set” (2004).
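How tested: cells in 96-well plates exposed to compound for 48 hours at five concentrations. Here, GI50 denotes the concentration required for 50% inhibition of growth.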 Activity calls are given as the source filed them. Rule as the data show it: active = GI50 up to about 1.1 µM and inactive = higher.

How the values were obtained:
Experiment in all cases: NCI-60 cell line screen, 48 h
786-0 = tested on: 786-0
A498 = tested on: A498
A549 = tested on: A549
ACHN = tested on: ACHN
BT-549 = tested on: BT-549
CAKI-1 = tested on: CAKI-1
CCRF-CEM = tested on: CCRF-CEM
COLO 205 = tested on: COLO 205
DU-145 = tested on: DU-145
EKVX = tested on: EKVX
HCC 2998 = tested on: HCC 2998
HCT-116 = tested on: HCT-116
HCT-15 = tested on: HCT-15
HL-60 = tested on: HL-60
HOP-62 = tested on: HOP-62
HOP-92 = tested on: HOP-92
HT-29 = tested on: HT-29
Hs-578T = tested on: Hs-578T
IGROV-1 = tested on: IGROV-1
K562 = tested on: K562
KM12 = tested on: KM12
LOX IMVI = tested on: LOX IMVI
M14 = tested on: M14
MCF7 = tested on: MCF7
MDA-MB-231 = tested on: MDA-MB-231
MDA-MB-435 = tested on: MDA-MB-435
MDA-N = tested on: MDA-N
MOLT-4 = tested on: MOLT-4
Malme-3M = tested on: Malme-3M
NCI-H226 = tested on: NCI-H226
NCI-H23 = tested on: NCI-H23
NCI-H460 = tested on: NCI-H460
NCI-H522 = tested on: NCI-H522
NCI/ADR-RES = tested on: NCI/ADR-RES
OVCAR-3 = tested on: OVCAR-3
OVCAR-4 = tested on: OVCAR-4
OVCAR-5 = tested on: OVCAR-5
OVCAR-8 = tested on: OVCAR-8
PC-3 = tested on: PC-3
RPMI-8226 = tested on: RPMI-8226
RXF 393 = tested on: RXF 393
SF-268 = tested on: SF-268
SF-295 = tested on: SF-295
SF-539 = tested on: SF-539
SK-MEL-28 = tested on: SK-MEL-28
SK-MEL-2 = tested on: SK-MEL-2
SK-MEL-5 = tested on: SK-MEL-5
SK-OV-3 = tested on: SK-OV-3
SN12C = tested on: SN12C
SNB-19 = tested on: SNB-19
SNB-75 = tested on: SNB-75
SW-620 = tested on: SW-620
T47D = tested on: T47D
TK-10 = tested on: TK-10
U-251 = tested on: U-251
UACC-257 = tested on: UACC-257
UACC-62 = tested on: UACC-62
UO-31 = tested on: UO-31
SR = tested on: SR

`C=C1C(OC)=C(OC)C(=O)c2[nH]c3c(OC)cc([N+](=O)[O-])cc3c21` was tested, and the GI50 (786-0) was 37.8 µM (inactive), the GI50 (A498) was > 100 µM (inactive) and the GI50 (A549) was > 100 µM (inactive). For the same compound, the GI50 (ACHN) was > 100 µM (inactive), the GI50 (BT-549) was > 100 µM (inactive) and the GI50 (CAKI-1) was > 100 µM (inactive). The GI50 (CCRF-CEM) was > 100 µM (inactive), the GI50 (COLO 205) was > 100 µM (inactive) and the GI50 (DU-145) was > 100 µM (inactive). The GI50 (EKVX) was 62.4 µM (inactive), the GI50 (HCC 2998) was > 100 µM (inactive) and the GI50 (HCT-116) was > 100 µM (inactive). The GI50 (HCT-15) was over 100 µM, the GI50 (HL-60) was > 100 µM (inactive) and the GI50 (HOP-62) was 85.7 µM (inactive). For the same compound, the GI50 (HOP-92) was > 100 µM (inactive), the GI50 (HT-29) was > 100 µM (inactive) and the GI50 (Hs-578T) was > 100 µM (inactive). The GI50 (IGROV-1) was > 100 µM (inactive), the GI50 (K562) was > 100 µM (inactive) and the GI50 (KM12) was > 100 µM (inactive). The GI50 (LOX IMVI) was > 100 µM (inactive), the GI50 (M14) was > 100 µM (inactive) and the GI50 (MCF7) was > 100 µM (inactive). The GI50 (MDA-MB-231) was > 100 µM (inactive), the GI50 (MDA-MB-435) was > 100 µM (inactive) and the GI50 (MDA-N) was > 100 µM (inactive). For the same compound, the GI50 (MOLT-4) was > 100 µM (inactive), the GI50 (Malme-3M) was > 100 µM (inactive) and the GI50 (NCI-H226) was > 100 µM (inactive). The GI50 (NCI-H23) was > 100 µM (inactive), the GI50 (NCI-H460) was > 100 µM (inactive) and the GI50 (NCI-H522) was > 100 µM (inactive). For the same compound, the GI50 (NCI/ADR-RES) was > 100 µM (inactive), the GI50 (OVCAR-3) was > 100 µM (inactive) and the GI50 (OVCAR-4) was > 100 µM (inactive). For the same compound, the GI50 (OVCAR-5) was > 100 µM (inactive), the GI50 (OVCAR-8) was > 100 µM (inactive) and the GI50 (PC-3) was > 100 µM (inactive). For the same compound, the GI50 (RPMI-8226) was > 100 µM (inactive), the GI50 (RXF 393) was 37 µM (inactive) and the GI50 (SF-268) was > 100 µM (inactive). For the same compound, the GI50 (SF-295) was > 100 µM (inactive), the GI50 (SF-539) was > 100 µM (inactive) and the GI50 (SK-MEL-28) was > 100 µM (inactive). For the same compound, the GI50 (SK-MEL-2) was > 100 µM (inactive), the GI50 (SK-MEL-5) was > 100 µM (inactive) and the GI50 (SK-OV-3) was > 100 µM (inactive). The GI50 (SN12C) was > 100 µM (inactive), the GI50 (SNB-19) was > 100 µM (inactive) and the GI50 (SNB-75) was 39.1 µM (inactive). For the same compound, the GI50 (SW-620) was > 100 µM (inactive), the GI50 (T47D) was > 100 µM (inactive) and the GI50 (TK-10) was > 100 µM (inactive). The GI50 (U-251) was > 100 µM (inactive), the GI50 (UACC-257) was > 100 µM (inactive) and the GI50 (UACC-62) was > 100 µM (inactive). The GI50 (UO-31) was > 100 µM (inactive).
For `N/C(=N\N=C\c1cc2ccccc2s1)c1cnccn1`, the GI50 (786-0) was > 100 µM (inactive), the GI50 (A498) was > 100 µM (inactive) and the GI50 (A549) was > 100 µM (inactive). For the same compound, the GI50 (ACHN) was > 100 µM (inactive), the GI50 (BT-549) was > 100 µM (inactive) and the GI50 (CAKI-1) was > 100 µM (inactive). The GI50 (CCRF-CEM) was 53.3 µM (inactive), the GI50 (COLO 205) was > 100 µM (inactive) and the GI50 (DU-145) was > 100 µM (inactive). The GI50 (EKVX) was > 100 µM (inactive), the GI50 (HCT-116) was > 100 µM (inactive) and the GI50 (HCT-15) was over 100 µM. The GI50 (HL-60) was > 100 µM (inactive), the GI50 (HOP-62) was > 100 µM (inactive) and the GI50 (HOP-92) was > 100 µM (inactive). The GI50 (HT-29) was > 100 µM (inactive), the GI50 (Hs-578T) was > 100 µM (inactive) and the GI50 (IGROV-1) was > 100 µM (inactive). The GI50 (K562) was 3.85 µM (inactive), the GI50 (KM12) was > 100 µM (inactive) and the GI50 (LOX IMVI) was > 100 µM (inactive). The GI50 (M14) was > 100 µM (inactive), the GI50 (MCF7) was 5.24 µM (inactive) and the GI50 (MDA-MB-231) was 82.6 µM (inactive). The GI50 (MDA-MB-435) was > 100 µM (inactive), the GI50 (MDA-N) was > 100 µM (inactive) and the GI50 (NCI-H226) was > 100 µM (inactive). For the same compound, the GI50 (NCI-H23) was > 100 µM (inactive), the GI50 (NCI-H460) was > 100 µM (inactive) and the GI50 (NCI-H522) was > 100 µM (inactive). For the same compound, the GI50 (NCI/ADR-RES) was > 100 µM (inactive), the GI50 (OVCAR-3) was > 100 µM (inactive) and the GI50 (OVCAR-4) was > 100 µM (inactive). The GI50 (OVCAR-5) was > 100 µM (inactive), the GI50 (OVCAR-8) was 78.2 µM (inactive) and the GI50 (PC-3) was 92.3 µM (inactive). The GI50 (RPMI-8226) was > 100 µM (inactive), the GI50 (RXF 393) was > 100 µM (inactive) and the GI50 (SF-268) was > 100 µM (inactive). For the same compound, the GI50 (SF-295) was 84.5 µM (inactive), the GI50 (SF-539) was > 100 µM (inactive) and the GI50 (SK-MEL-28) was > 100 µM (inactive). For the same compound, the GI50 (SK-MEL-2) was > 100 µM (inactive), the GI50 (SK-MEL-5) was > 100 µM (inactive) and the GI50 (SK-OV-3) was > 100 µM (inactive). The GI50 (SN12C) was > 100 µM (inactive), the GI50 (SNB-19) was 88.3 µM (inactive) and the GI50 (SNB-75) was 29.3 µM (inactive). For the same compound, the GI50 (SR) was 6 µM (inactive), the GI50 (SW-620) was > 100 µM (inactive) and the GI50 (T47D) was 8.93 µM (inactive). For the same compound, the GI50 (TK-10) was 87.7 µM (inactive), the GI50 (U-251) was > 100 µM (inactive) and the GI50 (UACC-257) was > 100 µM (inactive). For the same compound, the GI50 (UACC-62) was > 100 µM (inactive) and the GI50 (UO-31) was > 100 µM (inactive).
